Columns and labels:
TDO = molecular target: T1, TDO (Homo sapiens, UniProt P48775); assay: TDO cellular assay in frozen SW48 cells; type: cell-based; conditions: 300 uM L-tryptophan, about 48 hours, fluorescence readout
T1 construct: endogenous in cells; host or cells: SW48 cells (A2780 cells as low-TDO control)
Method: TDO Cellular Assay in Frozen SW48 Cells
SW48 cells were cultured in complete RPMI culture medium (90% RPMI, 10% heat-inactivated fetal bovine serum).
Compounds to be tested were serially diluted in ten 3-fold steps in DMSO starting from 10 mM DMSO stocks in Echo low volume plate(s). […] The cells were spun down at 350 g in a table top centrifuge for 5 minutes and suspended in same volume of RPMI assay medium. […] Sterile L-tryptophan (Sigma, Cat #T0254) was added to the cells with final concentration of 300 uM.
SW48 and A2780 cells were dispensed to the respective wells of 384-well assay plates containing the compounds. The plates were incubated for about 48 hours at a 37° C., 5% CO2 incubator. Afterwards, 12 μL of 0.5 M ethyl isonipecotate (Sigma Aldrich, Cat #E33505) in dimethyl sulfoxide were added into each well and the plates were sealed and incubated at 37° C. without CO2 overnight. The plates were centrifuged for 1 minute at 200×g. The resulting fluorescence was measured in a Spectramax plate reader (Molecular Devices) with a 400 nm excitation filter and a 510 nm emission filter.
The fluorescence intensity of each well was corrected for the background observed in wells with A2780 cells and was expressed as a fraction of the intensity observed in wells of SW48 cells and DMSO only. Potencies were calculated by linear least squares fit to the four parameter logistic IC50 equation.

IDO1 = IDO1 (Homo sapiens, UniProt P14902); assay: IDO1 cellular assay in Hela cells stimulated with IFNγ; type: cell-based; conditions: IFNγ 100 ng/mL, 300 uM L-tryptophan, about 48 hours, fluorescence readout
Chain of IDO1 (P14902 whole entry): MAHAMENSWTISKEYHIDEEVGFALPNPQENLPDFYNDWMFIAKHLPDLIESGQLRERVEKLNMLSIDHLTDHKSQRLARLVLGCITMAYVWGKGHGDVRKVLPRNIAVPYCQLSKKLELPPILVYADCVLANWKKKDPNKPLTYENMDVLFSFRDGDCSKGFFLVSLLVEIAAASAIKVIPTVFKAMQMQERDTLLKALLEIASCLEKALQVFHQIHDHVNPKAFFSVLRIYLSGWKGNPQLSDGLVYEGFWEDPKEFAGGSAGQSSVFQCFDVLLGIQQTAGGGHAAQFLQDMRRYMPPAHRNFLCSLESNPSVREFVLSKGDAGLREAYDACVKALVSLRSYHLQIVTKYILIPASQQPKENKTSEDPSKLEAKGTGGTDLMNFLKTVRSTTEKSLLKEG
Method: IDO1 Cellular Assay in Hela Cells Stimulated with IFNγ
Hela cells were cultured in complete Hela culture medium (90% EMEM, 10% heat-inactivated fetal bovine serum) and expanded to about 1×10^9 cells. The cells were then collected and frozen down at 1×10^7 cells/vial in 1 mL frozen medium (90% complete Hela culture medium, 10% DMSO)
Compounds to be tested were serially diluted in ten 3-fold steps in DMSO starting from 10 mM DMSO stocks in Echo low volume plate(s).
Frozen Hela cells were thawed and transferred into Hela assay medium (99% complete Hela culture medium, 1% Pen/Strep) with 20 mL medium/vial of cells. The cells were spun down at 250 g in a table top centrifuge for 5 min and suspended in same volume of Hela assay medium. […] Sterile L-tryptophan were added to the cells with final concentration of 300 uM L-tryptophan. A small aliquot (2 mL/plate) of Hela cells were set aside and were not treated with IFNγ, to serve as the Max-E control.
Hela cells with and without IFNγ were dispensed to the respective wells of 384-well assay plates containing the compounds. The plates were incubated for about 48 hours at a 37° C., 5% CO2 incubator. Afterwards, […] of 0.5 M methyl isonipecotate in dimethyl sulfoxide were added into each well and the plates were sealed and incubated at 37° C. without CO2 overnight. The plates were centrifuged for 1 min at 200×g. The resulting fluorescence was measured in a Spectramax plate reader (Molecular Devices) with a 400 nm excitation filter and a 510 nm emission filter.
Potencies were calculated by linear least squares fit to the four parameter logistic IC50 equation.

T1 sequence (P48775 whole entry): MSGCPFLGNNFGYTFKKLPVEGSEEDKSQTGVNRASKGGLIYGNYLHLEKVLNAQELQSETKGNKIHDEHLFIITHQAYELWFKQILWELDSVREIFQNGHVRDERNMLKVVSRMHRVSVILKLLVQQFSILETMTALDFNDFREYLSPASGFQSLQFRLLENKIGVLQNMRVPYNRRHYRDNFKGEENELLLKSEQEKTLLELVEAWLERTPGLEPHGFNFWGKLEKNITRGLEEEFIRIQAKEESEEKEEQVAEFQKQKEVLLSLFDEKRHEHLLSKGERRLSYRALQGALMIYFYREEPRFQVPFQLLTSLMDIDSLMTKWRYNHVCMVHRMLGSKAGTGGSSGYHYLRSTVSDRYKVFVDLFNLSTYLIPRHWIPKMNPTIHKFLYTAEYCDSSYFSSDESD

Structure (SMILES)	IC50 (TDO) [nM]	IC50 (IDO1) [nM]
O=C(Nc1ccc(C2(C(=O)NCCC(F)(F)F)CCC2)cn1)c1cccc(Cl)c1 [Example 3, 3-chloro-N-(5-{1-[(3,3,3-trifluoropropyl)carbamoyl]cyclobutyl}pyridin-2-yl)benzamide]	≥ 10000	3
CCCNC(=O)C1(c2ccc(NC(=O)c3cccc(Cl)c3)nc2)CCC1 [Example 4, 3-chloro-N-{5-[1-(propylcarbamoyl)cyclobutyl]pyridin-2-yl}benzamide]	≥ 10000	151
O=C(Nc1ccc(C2(C(=O)Nc3ccc(F)nc3)CCC2)cn1)c1cccc(Cl)n1 [Example 6, 6-chloro-N-(5-{1-[(6-fluoropyridin-3-yl)carbamoyl]cyclobutyl}pyridin-2-yl)pyridine-2-carboxamide]	≥ 10000	94
Cc1cccc(C(=O)Nc2ccc(C3(C(=O)Nc4ccc(F)nc4)CCC3)cn2)n1 [Example 8, N-(5-{1-[(6-fluoropyridin-3-yl)carbamoyl]cyclobutyl}pyridin-2-yl)-6-methylpyridine-2-carboxamide]	≥ 10000	43
O=C(Nc1ccc(C2(C(=O)Nc3ccc(F)cc3)CCC2)cn1)C1CCC(F)(F)CC1 [Example 9, 4,4-difluoro-N-(5-{1-[(4-fluorophenyl)carbamoyl]cyclobutyl}pyridin-2-yl)cyclohexane-1-carboxamide]	≥ 10000	56
N#C[C@@H]1CCC[C@H](C(=O)Nc2ccc(C3(C(=O)Nc4ccc(F)cc4)CCC3)cn2)C1 [Example 10, (1S,3R)-3-cyano-N-(5-{1-[(4-fluorophenyl)carbamoyl]cyclobutyl}pyridin-2-yl)cyclohexane-1-carboxamide]	≥ 10000	67
CC(C)(C)CCC(=O)Nc1ccc(C2(C(=O)Nc3ccc(F)cc3)CCC2)cn1 [Example 11, 1-{6-[(4,4-dimethylpentanoyl)amino]pyridin-3-yl}-N-(4-fluorophenyl)cyclobutane-1-carboxamide]	≥ 10000	96
O=C(CCC1CC1)Nc1ccc(C2(C(=O)Nc3ccc(F)nc3)CCC2)cn1 [Example 12, 1-{6-[(3-cyclopropylpropanoyl)amino]pyridin-3-yl}-N-(6-fluoropyridin-3-yl)cyclobutane-1-carboxamide]	≥ 10000	227
N#C[C@@H]1CCC[C@@H](C(=O)Nc2ccc(C3(C(=O)Nc4ccc(F)cc4)CCC3)cn2)C1 [Example 13, (1R,3R)-3-cyano-N-(5-{1-[(4-fluorophenyl)carbamoyl]cyclobutyl}pyridin-2-yl)cyclohexane-1-carboxamide]	≥ 10000	236
O=C(Nc1ccc(C2(C(=O)Nc3ccc(F)cc3)CCC2)cn1)c1cc(Cl)ccc1F [Example 16, 5-chloro-2-fluoro-N-(5-{1-[(4-fluorophenyl)carbamoyl]cyclobutyl}pyridin-2-yl)benzamide]	≥ 10000	14
CC(C)(C)OC(=O)Nc1ccc(C2(C(=O)Nc3ccc(F)cc3)CCC2)cn1 [Example 19, tert-butyl (5-{1-[(4-fluorophenyl)carbamoyl]cyclobutyl}pyridin-2-yl)carbamate]	≥ 10000	103
O=C(Nc1ccc(C2(C(=O)Nc3ccc(F)cc3)CCC2)cn1)c1c(F)ccc(Cl)c1F [Example 21, 3-chloro-2,6-difluoro-N-(5-{1-[(4-fluorophenyl)carbamoyl]cyclobutyl}pyridin-2-yl)benzamide]	≥ 10000	94
O=C(Nc1ccc(C2(C(=O)Nc3ccc(F)cc3)CCC2)cn1)c1cc(Cl)ccn1 [Example 26, 4-chloro-N-(5-{1-[(4-fluorophenyl)carbamoyl]cyclobutyl}pyridin-2-yl)pyridine-2-carboxamide]	≥ 10000	13
O=C(Nc1ccc(C2(C(=O)Nc3ccc(F)cc3)CCC2)cn1)c1cncc(F)c1 [Example 28, 5-fluoro-N-(5-{1-[(4-fluorophenyl)carbamoyl]cyclobutyl}pyridin-2-yl)pyridine-3-carboxamide]	≥ 10000	30
O=C(Nc1ccc(C2(C(=O)Nc3ccc(F)cc3)CCC2)cn1)N1CCCC1 [Example 31, N-(5-{1-[(4-fluorophenyl)carbamoyl]cyclobutyl}pyridin-2-yl)pyrrolidine-1-carboxamide]	≥ 10000	145
N#Cc1cncc(C(=O)Nc2ccc(C3(C(=O)Nc4ccc(F)cc4)CCC3)cn2)c1 [Example 32, 5-cyano-N-(5-{1-[(4-fluorophenyl)carbamoyl]cyclobutyl}pyridin-2-yl)pyridine-3-carboxamide]	≥ 10000	174
O=C(Nc1ccc(C2(C(=O)NC3CCC(F)(F)CC3)CCC2)cn1)c1cncc(Cl)c1 [Example 33, 5-Chloro-N-(5-(1-((4,4-difluorocyclohexyl)carbamoyl)cyclobutyl)pyridin-2-yl)nicotinamide]	≥ 10000	1600
O=C(Nc1ccc(C2(C(=O)Nc3ccc(F)cn3)CCC2)cn1)c1cncc(Cl)c1 [Example 34, 5-chloro-N-(5-{1-[(5-fluoropyridin-2-yl)carbamoyl]cyclobutyl}pyridin-2-yl)pyridine-3-carboxamide]	≥ 10000	104
O=C(NC1CCCCC1)c1ccc(C2(C(=O)Nc3ccc(F)cc3)CCC2)cn1 [Example 35, N-cyclohexyl-5-(1-((4-fluorophenyl)carbamoyl)cyclobutyl)picolinamide]	≥ 10000	473
O=C(NC1(c2ccc(NC(=O)c3ncco3)cn2)CCC1)c1ccc(Cl)nc1 [Example 39, N-(6-(1-(6-chloronicotinamido)cyclobutyl)pyridin-3-yl)oxazole-2-carboxamide]	≥ 10000	921
O=C(NC1(c2ccc(NC(=O)c3nccs3)cn2)CCC1)c1ccc(Cl)nc1 [Example 40, 6-chloro-N-(1-{5-[(1,3-thiazole-2-carbonyl)amino]pyridin-2-yl}cyclobutyl)pyridine-3-carboxamide]	≥ 10000	280
O=C(Nc1ccc(C2(NC(=O)c3ccc(Cl)nc3)CCC2)nc1)c1ccnc(Cl)c1 [Example 43, 6-chloro-N-(1-{5-[(2-chloropyridine-4-carbonyl)amino]pyridin-2-yl}cyclobutyl)pyridine-3-carboxamide]	≥ 10000	377
O=C(Nc1ccc(C2(NC(=O)c3ccc(Cl)nc3)CCC2)nc1)c1cncc(Cl)c1 [Example 44, 5-chloro-N-(6-{1-[(6-chloropyridine-3-carbonyl)amino]cyclobutyl}pyridin-3-yl)pyridine-3-carboxamide]	≥ 10000	131
O=C(Nc1ccc(C2(NC(=O)c3ccc(Cl)nc3)CCC2)nc1)c1ccnc(C(F)(F)F)c1 [Example 45, 6-chloro-N-[1-(5-{[2-(trifluoromethyl)pyridine-4-carbonyl]amino}pyridin-2-yl)cyclobutyl]pyridine-3-carboxamide]	≥ 10000	469
Cc1cc(C(=O)Nc2ccc(C3(NC(=O)c4ccc(Cl)nc4)CCC3)nc2)ccn1 [Example 46, 6-chloro-N-(1-{5-[(2-methylpyridine-4-carbonyl)amino]pyridin-2-yl}cyclobutyl)pyridine-3-carboxamide]	≥ 10000	1060
N#Cc1ccc(C(=O)Nc2ccc(C3(NC(=O)c4ccc(Cl)nc4)CCC3)nc2)cc1 [Example 47, 6-chloro-N-(1-{5-[(4-cyanobenzene-1-carbonyl)amino]pyridin-2-yl}cyclobutyl)pyridine-3-carboxamide]	≥ 10000	2000
N#Cc1cccc(C(=O)Nc2ccc(C3(NC(=O)c4ccc(Cl)nc4)CCC3)nc2)c1 [Example 48, 6-chloro-N-(1-{5-[(3-cyanobenzene-1-carbonyl)amino]pyridin-2-yl}cyclobutyl)pyridine-3-carboxamide]	≥ 10000	35
N#Cc1cccc(C(=O)Nc2ccc(C3(C(=O)Nc4ccc(F)cc4)CCC3)nc2O)c1 [Example 54, 3-cyano-N-(6-(1-((4-fluorophenyl)carbamoyl)cyclobutyl)-2-hydroxypyridin-3-yl)benzamide]	–	540
